Data set [1] relates to KOPR. The note with it: 2.5 mg/kg; s.c. (Xia et al., 2007); cited from earlier work.
Data set [2] concerns the target T1, μ opioid receptor (MOPR) (Mus musculus, UniProt P42866).
T1 construct: The caudate-putamen and nucleus accumbens were microdissected and the tissue was homogenized; from tissue; host or cells: mouse brain: caudate-putamen and nucleus accumbens membrane preparations
Description: DAMGO concentration-dependent [35S]GTPγS binding in caudate-putamen and nucleus accumbens membrane preparations. Type of data set: biochemical, mice. On the procedure:
(§1) MOPR activity was assayed by using [^35S]GTPγS binding on membrane preparations using a modification of the previously described method^23. The mice were sacrificed by cervical dislocation and the brain was dissected rapidly. The caudate-putamen and nucleus accumbens were microdissected and the tissue was homogenized using teflon pistol in Eppendorf tubes (10 strokes) in 300 μl of homogenization buffer containing 25 mM Tris/pH7.4, 5 mM EDTA and 0.1 mM PMSF and kept on ice. Homogenate was diluted to 2.5 ml using the homogenization buffer and centrifuged at ˜350,000 g for 30 min. After washing 3 times with 50 mM Tris-HCl/pH7.4, the pellets were re-suspended in 50 mM Tris-HCl/pH7.4 containing 0.32 M sucrose, passed through a 26.5 G needle for 3 times, frozen in dry ice/ethanol and stored in −80° C. until use. […] Bound and free [^35S]GTPγS were separated by filtration with GF/B filters under reduced pressure. Radioactivity on filters was determined by liquid scintillation counting. Nonspecific binding was subtracted from total stimulated and basal binding. […] MOPR activity was reported as % of baseline (unstimulated) activity: [Disintegrations per minute (DPM) with agonist stimulated binding−DPM of nonspecific binding)/(DPM basal (without agonist)−DPM nonspecific)×100. Protein content of membranes was determined by the BCA method of^24 with bovine serum albumin as the standard.
(Binding of GTPγS marks nucleotide exchange on a G protein.)

For data set [3] the following is noted: cited from earlier work.
Data set [4] concerns frontal cortical dopamine levels. The settings on record: cited from earlier work.
For data set [5], the system named is rats. The settings on record: 0.5 mg/kg MPH, rats (Paine et al., 2007); cited from earlier work.
Data set [6] concerns healthy human volunteers. The settings on record: studies that evaluated detection/likeability (Kollins et al., 2001); cited from earlier work.
The target in data set [7] is T1, μ opioid receptor (MOPR). As to the kind of experiment: DAMGO-stimulated [35S]GTPγS binding (MOPR activity) in caudate-putamen and nucleus accumbens membranes of drug-treated mice from the CPP assay. Type of data set: in vivo. The note with it: for MOPR activity (DAMGO-stimulated [35S]GTPγS binding) compared to saline: caudate-putamen and nucleus accumbens, 10 μM DAMGO. On the procedure:
as §1

Data set [8] relates to mice. As to the kind of experiment: Locomotor activity measured during the CPP assay. The class given is in vivo. The note with it: for MPH-induced increase in locomotor activity: naltrexone 1, 5 or 10 mg/kg 30 min prior to MPH 7.5 mg/kg. As for the experimental part:
In control groups, saline or naltrexone at each of the doses was administered alone (without MPH).

Data set [9] has as its system Adult C57BL/6 mice. As to the kind of experiment: Conditioned place preference (CPP). The class given is in vivo. The settings on record: for MPH-induced place preference / CPP score compared to the saline group: naltrexone 10 mg/kg (highest dose) prior to MPH 7.5 mg/kg; for place preference (CPP): naltrexone 1 or 10 mg/kg alone; for effect on high dose MPH-induced CPP (rewarding effects): naltrexone prior to MPH, naltrexone dose not stated. As for the experimental part:
Photobeams wired to a computer can record animal location (time spent in the chamber). The central chamber has a smooth floor with gray color. Each preference chamber is either white with a mesh floor or black with a bar floor. The CPP procedure included three phases. (1) The pre-conditioning phase was performed on day 1 (two sessions daily, AM and PM). In each preconditioning session, mice were initially placed in the central gray chamber for 2 min and then allowed free access to the white and black chambers for 20 min. The time spent in each chamber was recorded. […] (2) The conditioning phase was carried out on each of days 2 to 6 [two sessions daily, AM and PM one each for vehicle-paired (saline as vehicle) and drug-paired (cocaine or MPH as drugs) sessions]. In the vehicle-paired session mice were injected with saline (i.p.) and placed in the central gray chamber for 2 min (to isolate injection effect to the central chamber) and then confined to the vehicle-paired chamber for 30 min. In the drug-paired session, the mice were given the drug in the central chamber, retained there for 2 min and then confined for 30 min in the drug-paired chamber. […] The time spent in each chamber was recorded. The difference between time spent in the drug-paired chamber during the test phase and pre-conditioning phases was calculated as the CPP score.

The mark [10] stands for this setting: 0.75 mg/kg dose (Balcioglu et al., 2009).
Setting [11] is: MPH 7.5 mg/kg vs cocaine 10 mg/kg.
Where [12] appears, read: naltrexone 1, 5 or 10 mg/kg prior to MPH 7.5 mg/kg.

Entries after “also recorded” stand apart in the source; their conditions may differ.

T1 sequence (P42866 whole entry): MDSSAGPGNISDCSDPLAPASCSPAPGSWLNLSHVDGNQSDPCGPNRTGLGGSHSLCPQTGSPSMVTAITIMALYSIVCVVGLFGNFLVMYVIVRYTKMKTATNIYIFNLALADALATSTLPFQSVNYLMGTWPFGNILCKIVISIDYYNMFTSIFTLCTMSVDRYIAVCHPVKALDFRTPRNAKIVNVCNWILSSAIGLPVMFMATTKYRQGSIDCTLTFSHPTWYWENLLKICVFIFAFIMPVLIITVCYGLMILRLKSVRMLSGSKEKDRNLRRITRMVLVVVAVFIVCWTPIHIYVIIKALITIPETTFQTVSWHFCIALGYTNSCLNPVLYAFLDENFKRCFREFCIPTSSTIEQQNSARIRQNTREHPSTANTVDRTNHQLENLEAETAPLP

Turning to `CC(N)Cc1ccccc1` (stereo not drawn) [Amphetamine], the “KOPR signaling in the nucleus accumbens” value in [1] is on record as “modulates KOPR signaling in the nucleus accumbens in a region-specific manner”.

Take `C[C@@H](NC(=O)[C@@H](N)Cc1ccc(O)cc1)C(=O)NCC(=O)N(C)[C@@H](Cc1ccccc1)C(=O)NCCO` [DAMGO]: in data set [2], the “concentration at which maximal [35S]GTPγS binding was reached” value is 10 µM. The “maximal [35S]GTPγS binding” value in data set [2] (at 10 μM DAMGO) was 1.75 fold of the basal level.

`COC(=O)C(c1ccccc1)C1CCCCN1` (stereo not drawn) [MPH, Methylphenidate]: the “serum and brain concentrations of d-methylphenidate” value in data set [3] (0.75 mg/kg MPH, adult mice (ref. 19)) was “equivalent to its serum and brain (estimated) concentrations in ADHD patients taking therapeutic doses of MPH”. In data set [3] (setting [10]), the “clinically relevant serum levels of D-MPH” value was 6 to 10 ng/mL. In addition, the “time brain levels remain high” value in data set [3] (setting [10]) is approximately 30 min. For the same molecule, the “time to reach clinically relevant serum levels of D-MPH” value in data set [3] (setting [10]) is not above 15 min. For the same molecule, in data set [4] (setting [10]), the “time after MPH administration at which increases in frontal cortical dopamine levels occur” value is given as approximately 60 min. Further, the “effect on neurotransmitter levels” value in data set [4] (low doses of MPH (literature)) is reported as “selectively affect neurotransmitter levels in the frontal cortex”. Besides, in data set [5], the “accuracy in 5-CSRT assay” value is “increased accuracy”. The “studies reporting subjective responses to oral MPH” value in data set [6] is on record as 18 (72%) of 25 studies. Besides, the MOPR activity entry in data set [7] (7.5 mg/kg MPH to 25-day old mice for 5 days, expected) was “MOPR upregulation”. Also, the “MOPR activity (DAMGO-stimulated [35S]GTPγS binding) compared to saline” value is “did not produce significant enhancements” in [7] (MPH 0.75 mg/kg i.p.) and “significantly greater; also recorded: activate MOPR; also recorded: upregulation of striatal MOPR; also recorded: upregulate MOPR activity; also recorded: significantly higher MOPR activity” in [7] (MPH 7.5 mg/kg i.p.). Further, the “MOPR activity, high dose MPH group vs cocaine group” value in [7] (setting [11]) was “no significant difference”. For the same molecule, the “locomotor activity compared to saline” value is listed as “no significant effect” in data set [8] (MPH 0.75 mg/kg) and “significantly increased locomotor activity; also recorded: increased locomotor activity significantly” in data set [8] (MPH 7.5 mg/kg). In addition, the “place preference: time spent in the drug-paired chamber, test vs pre-conditioning sessions” value in data set [9] (MPH 0.75 mg/kg (low, therapeutic dose) i.p.) is listed as “did not; also recorded: neither induce place preference; also recorded: do not; also recorded: no statistically significant difference”; in [9] (MPH 7.5 mg/kg (high, supra-therapeutic dose) i.p., alone), “showed significant place preference; also recorded: induced CPP; also recorded: produce CPP; also recorded: induce place preference; also recorded: produce place preference; also recorded: spent significantly longer period of time in the drug-paired chamber; also recorded: produced significant increase”. Moreover, the “CPP score compared to the saline and low dose MPH groups” value in data set [9] (MPH 7.5 mg/kg i.p.) is “significantly higher CPP scores”. For the same molecule, the “CPP score, high dose MPH group vs cocaine group” value in [9] (setting [11]) is listed as “no statistically significant difference”.

In the case of `O=C1CC[C@@]2(O)[C@H]3Cc4ccc(O)c5c4[C@@]2(CCN3CC2CC2)[C@H]1O5` [naltrexone], the “MPH-induced increase in locomotor activity” value in data set [8] is “not affected”. Besides, the “MPH-induced increase in locomotor activity” value in [8] (listed as Naltrexone) is listed as “did not block the MPH-induced increases in locomotor activity”. For the same molecule, the locomotor activity entry in data set [8] (naltrexone 1, 5 or 10 mg/kg alone) was “did not affect locomotor activity”. The “naltrexone dose needed to block reinforcing properties of MPH” value in data set [9] (7.5 mg/kg MPH, preliminary findings) was “at least 5 mg/kg”. In [9], the “MPH-induced place preference / CPP score compared to the saline group” value is recorded as “not significantly different from that for the saline group”, the “place preference (CPP)” value is reported as “did not induce CPP” and the “effect on high dose MPH-induced CPP (rewarding effects)” value is recorded as “can significantly attenuate rewarding effects of MPH”. Moreover, in data set [9] (listed as Naltrexone), the “MPH-induced place preference / CPP score compared to the saline group” value is reported as “blocking it completely”, the “place preference (CPP)” value is given as “did not affect CPP” and the “effect on high dose MPH-induced CPP (rewarding effects)” value is reported as “prevents MPH-induced CPP; also recorded: attenuates high dose MPH-induced place preference”. Moreover, the “time spent in the drug-paired chamber, PC vs Test sessions” value in data set [9] (naltrexone 1, 5 or 10 mg/kg administered prior to MPH 7.5 mg/kg) was “significant difference between PC and Test sessions”. For the same molecule, in [9] (setting [12]), the “CPP score compared to MPH administered alone” value is recorded as “significantly decreased the CPP score” and the “dose dependence of the decrease in the CPP score” value is “dose-dependent”. Also, the “MPH-induced CPP / CPP score compared to MPH administered alone” value in [9] (naltrexone 5 or 10 mg/kg 30 min prior to MPH 7.5 mg/kg) was “significantly lower; also recorded: blocks MPH-induced conditioned place preference (CPP)”.

For the molecule `CCN1CCC[C@H]1CNC(=O)c1c(O)c(Cl)cc(Cl)c1OC` [raclopride], the “CPP score compared to the MPH only group” value in [9] (MPH 7.5 mg/kg + raclopride) is “did not show significant differences”.

The values are drawn from patent US11045465B2, “Methods and compositions to prevent addiction” (FLORIDA STATE UNIVERSITY RESEARCH FOUNDATION, INC., priority 2009, dated 2021).
